Test results as given in PMC12442245, “Activity Analysis of the P2X Receptor Antagonist PPADS against Signal Transducer and Activator of Transcription Proteins” (Chembiochem, 2025).

Molecular target: T1, STAT1 (Homo sapiens, UniProt P42224)
T1 sequence (P42224 1-750): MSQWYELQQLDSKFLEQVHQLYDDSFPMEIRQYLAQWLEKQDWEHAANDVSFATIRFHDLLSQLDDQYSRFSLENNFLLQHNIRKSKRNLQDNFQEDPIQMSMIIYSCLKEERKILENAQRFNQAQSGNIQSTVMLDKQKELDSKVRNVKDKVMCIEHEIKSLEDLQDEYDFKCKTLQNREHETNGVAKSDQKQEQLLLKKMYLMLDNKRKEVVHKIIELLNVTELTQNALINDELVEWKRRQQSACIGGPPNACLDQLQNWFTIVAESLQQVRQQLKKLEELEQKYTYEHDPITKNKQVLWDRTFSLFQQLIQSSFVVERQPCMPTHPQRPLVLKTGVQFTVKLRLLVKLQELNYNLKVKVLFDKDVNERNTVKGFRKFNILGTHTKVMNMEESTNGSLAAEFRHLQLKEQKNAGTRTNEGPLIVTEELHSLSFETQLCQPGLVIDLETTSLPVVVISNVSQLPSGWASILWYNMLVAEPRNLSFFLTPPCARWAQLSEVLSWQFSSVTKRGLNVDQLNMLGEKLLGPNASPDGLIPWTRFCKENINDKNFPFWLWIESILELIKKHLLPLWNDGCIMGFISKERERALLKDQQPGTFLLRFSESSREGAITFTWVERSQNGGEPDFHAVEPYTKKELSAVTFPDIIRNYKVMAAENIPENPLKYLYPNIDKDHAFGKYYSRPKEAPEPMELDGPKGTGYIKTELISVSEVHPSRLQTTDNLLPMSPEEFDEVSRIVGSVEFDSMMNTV
Experiment: Competitive fluorescence polarization (FP) assay, STAT1
Format: binding
Source text: Screening of chemical libraries
Screening of chemical libraries comprising approximately 5000 known bioactive compounds in fluorescence polarization-based assays against phosphorylation-dependent protein-protein interaction domains, including STAT proteins, has been described.[1] PPADS was purchased from Sigma-Aldrich, and iso-PPADS from Bio-Techne.
Fluorescence polarization assays
Competitive fluorescence polarization (FP) assays for STAT1,[2] STAT3,[3] STAT4,[4] STAT5a,[5] STAT5b[6] and STAT6[1] were performed as previously described. Briefly, peptide binding to proteins was analyzed using the following carboxyfluorescein (CF) -labelled pepti des at a concentration of 10 nM: STAT1: 5-CF-GpYDKPHVL-OH, STAT3: 5-CF-GpYLPQTV -NH2, STAT4: 5-CF-GpYLPQNID-OH, STAT5a and STAT5b: 5-CF-GpYLVLDKW-OH, STAT6: 5- […]
CFGp[…]-OH. Proteins were used at a final concentration representing the approximate Kd value for binding of the corresponding peptide to the protein, namely 65 nM for STAT1, 65 nM for STAT3, 35 nM for STAT4, 125 nM for STAT5a, 65 nM for STAT5b and 75 nM for STAT6. Assays were carried out in buffer containing 10 mM Tris/HCl, 50 mM NaCl, 1 mM EDTA, 0.1% NP-40 substitute and 2% DMSO, with 1 mM reducing agent where applicable, at pH 8.0. […] FP was measured using an Infinite F500 plate reader (Tecan) and measurements were converted into percent inhibition according to […]

| SMILES | inhibition at 100 µM (at 100 μM, the highest concentration tested) | IC50 (no reducing agent, 1 h) |
| --- | --- | --- |
| Cc1nc(/N=N/c2cc(S(=O)(=O)O)ccc2S(=O)(=O)O)c(COP(=O)(O)O)c(C=O)c1O [iso‐PPADS] | 41 ± 0.4% |  |
| Cc1nc(/N=N/c2ccc(S(=O)(=O)O)cc2S(=O)(=O)O)c(COP(=O)(O)O)c(C=O)c1O [PPADS, pyridoxalphosphate‐6‐azophenyl‐2',4'‐disulfonic acid] |  | 87.4 ± 6.6 µM |
